Experimental data taken from EPA's ToxValDB 9.5.

Tested on: Rattus norvegicus
Conditions: short-term, duration: 28 days, oral, gavage, M, Sprague-Dawley

`O=C(O)C(F)(F)C(F)(F)C(F)(F)C(F)(F)C(F)(F)C(F)(F)C(F)(F)C(F)(F)C(F)(F)F` [Perfluorodecanoic acid] gave an LOEL (Clinical chemistry_Aspartate aminotransferase) of 0.156 mg/kg-day, an LOEL (Clinical chemistry_Cholesterol) of 0.156 mg/kg-day and an NOEL (Clinical chemistry_Creatinine kinase) of 2.5 mg/kg-day. For the same compound, the LOEL (Clinical chemistry_Direct bilirubin) was 1.25 mg/kg-day, the LOEL (Clinical chemistry_Free thyroxine) was 0.312 mg/kg-day and the LOEL (Clinical chemistry_Globulin) was 0.156 mg/kg-day. For the same compound, the LOEL (Clinical chemistry_Indirect bilirubin) was 1.25 mg/kg-day, the NOEL (Clinical chemistry_Sorbitol dehydrogenase) was 2.5 mg/kg-day and the LOEL (Clinical chemistry_Testosterone) was 1.25 mg/kg-day. It also gave an NOEL (Clinical chemistry_Thyroid stimulating hormone) of 2.5 mg/kg-day, an LOEL (Clinical chemistry_Total bile acids) of 1.25 mg/kg-day and an LOEL (Clinical chemistry_Total bilirubin) of 1.25 mg/kg-day. It also gave an LOEL (Clinical chemistry_Total protein) of 0.156 mg/kg-day, an NOEL (Clinical chemistry_Total thyroxine) of 2.5 mg/kg-day and an NOEL (Clinical chemistry_Total triiodothyronine) of 2.5 mg/kg-day. It also gave an LOEL (Clinical chemistry_Triglycerides) of 1.25 mg/kg-day, an LOEL (Gene expression_Acox1) of 0.156 mg/kg-day and an LOEL (Gene expression_Acyl-CoA oxidase) of 0.156 mg/kg-day. It also gave an LOEL (Gene expression_Cyp2b1) of 0.156 mg/kg-day, an LOEL (Gene expression_Cyp2b2) of 0.156 mg/kg-day and an LOEL (Gene expression_Cyp4a1) of 0.156 mg/kg-day. It also gave an LOEL (Hematology_Erythrocytes) of 2.5 mg/kg-day, an NOEL (Hematology_Hematocrit) of 2.5 mg/kg-day and an NOEL (Hematology_Hemoglobin) of 2.5 mg/kg-day. The LOEL (Hematology_Mean corpuscular hemoglobin concentration) was 0.625 mg/kg-day, the LOEL (Hematology_Mean corpuscular volume) was 1.25 mg/kg-day and the NOEL (Hematology_Platelets) was 2.5 mg/kg-day. The LOEL (Hematology_Reticulocytes) was 1.25 mg/kg-day, the LOEL (Nonneoplastic effects_Bone marrow - Hypocellularity) was 2.5 mg/kg-day and the LOEL (Nonneoplastic effects_Epididymis - Duct, exfoliated germ cell) was 2.5 mg/kg-day. The NOEL (Nonneoplastic effects_Epididymis - Epithelium, apoptosis) was 2.5 mg/kg-day, the NOEL (Nonneoplastic effects_Epididymis - Hypospermia) was 2.5 mg/kg-day and the NOEL (Nonneoplastic effects_Forestomach - Epithelium, hyperplasia) was 2.5 mg/kg-day. It also gave an NOEL (Nonneoplastic effects_Forestomach - Inflammation, chronic active) of 2.5 mg/kg-day, an NOEL (Nonneoplastic effects_Kidney - Nephropathy, chronic progressive) of 2.5 mg/kg-day and an NOEL (Nonneoplastic effects_Liver - Hepatocyte, Necrosis) of 2.5 mg/kg-day. The LOEL (Nonneoplastic effects_Liver - Hepatocyte, cytoplasmic alteration) was 0.625 mg/kg-day, the LOEL (Nonneoplastic effects_Liver - Hepatocyte, hypertrophy) was 1.25 mg/kg-day and the LOEL (Nonneoplastic effects_Liver - Hepatocyte, vacuolization cytoplasmic) was 1.25 mg/kg-day. It also gave an NOEL (Nonneoplastic effects_Lymph nodes - Mandibular, atrophy) of 2.5 mg/kg-day, an NOEL (Nonneoplastic effects_Lymph nodes - Mesenteric, atrophy) of 2.5 mg/kg-day and an NOEL (Nonneoplastic effects_Nose - Olfactory epithelium, degeneration) of 2.5 mg/kg-day. It also gave an NOEL (Nonneoplastic effects_Nose - Olfactory epithelium, hyperplasia) of 2.5 mg/kg-day, an NOEL (Nonneoplastic effects_Nose - Olfactory epithelium, inflammation, suppurative) of 2.5 mg/kg-day and an NOEL (Nonneoplastic effects_Nose - Respiratory epithelium, hyperplasia) of 2.5 mg/kg-day. The NOEL (Nonneoplastic effects_Nose - Respiratory epithelium, inflammation, chronic active) was 2.5 mg/kg-day, the NOEL (Nonneoplastic effects_Spleen - Atrophy) was 2.5 mg/kg-day and the NOEL (Nonneoplastic effects_Spleen - Extramedullary hematopoiesis, increased) was 2.5 mg/kg-day. The LOEL (Nonneoplastic effects_Testes - Germinal epithelium, degeneration) was 2.5 mg/kg-day, the LOEL (Nonneoplastic effects_Testes - Interstitial cell, atrophy) was 1.25 mg/kg-day and the LOEL (Nonneoplastic effects_Testes - Seminiferous tubule, spermatid retention) was 2.5 mg/kg-day. The LOEL (Nonneoplastic effects_Thymus - Atrophy) was 2.5 mg/kg-day, the LOEL (Nonneoplastic effects_Thymus - Lymphocyte, apoptosis) was 1.25 mg/kg-day and the NOEL (Nonneoplastic effects_Thyroid gland - Follicular cell hypertrophy) was 2.5 mg/kg-day. It also gave an LOEL (Organ weights_Liver - Absolute) of 0.156 mg/kg-day, an LOEL (Organ weights_Liver - Relative) of 0.156 mg/kg-day and an LOEL (Organ weights_R. adrenal gland - Absolute) of 0.156 mg/kg-day. It also gave an LOEL (Organ weights_R. adrenal gland - Relative) of 2.5 mg/kg-day, an LOEL (Organ weights_R. kidney - Absolute) of 2.5 mg/kg-day and an LOEL (Organ weights_R. kidney - Relative) of 0.625 mg/kg-day. The LOEL (Organ weights_R. testis - Absolute) was 2.5 mg/kg-day, the LOEL (Organ weights_Spleen - Absolute) was 1.25 mg/kg-day and the LOEL (Organ weights_Spleen - Relative) was 2.5 mg/kg-day. It also gave an LOEL (Organ weights_Thymus - Absolute) of 1.25 mg/kg-day, an LOEL (Organ weights_Thymus - Relative) of 1.25 mg/kg-day and an NOEL (Organ weights_Thyroid gland - Absolute) of 2.5 mg/kg-day. It also gave an LOEL (Organ weights_Thyroid gland - Relative) of 1.25 mg/kg-day, an LOEL (Reproductive toxicity_Altered sperm parameters) of 2.5 mg/kg-day and an NOEL (Survival rates) of 2.5 mg/kg-day. The LOEL (body weight) was 1.25 mg/kg-day.
